The source of these data is PMC3206575 (The Journal of Cell Biology, 1999).

Substitutions are numbered along the chain they refer to.

Assay [1] addresses T1, DRal (Drosophila Ral), GST-DRal (Drosophila melanogaster, UniProt P48555, G20V).
T1 sequence (P48555 1-201 G20V): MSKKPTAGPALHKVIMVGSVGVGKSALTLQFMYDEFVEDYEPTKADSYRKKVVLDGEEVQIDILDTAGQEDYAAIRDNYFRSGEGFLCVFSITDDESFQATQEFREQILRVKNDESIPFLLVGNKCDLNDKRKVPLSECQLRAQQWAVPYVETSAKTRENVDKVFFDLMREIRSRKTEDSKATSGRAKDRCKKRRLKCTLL
The assay is described as follows: […]GTPγS binding to GST fusion protein.

Assay [2] has as its target T2, DRal (Drosophila Ral), GST-DRal (Drosophila melanogaster, UniProt P48555).
T2 sequence (P48555 1-201): T1 sequence (P48555 1-201 G20V) with V20G
Kind of assay: […]GTPγS binding to GST fusion protein.

In assay [3] the target is T3, DRal (Drosophila Ral), GST-DRal (Drosophila melanogaster, UniProt P48555, S25N).
T3 sequence (P48555 1-201 S25N): T1 sequence (P48555 1-201 G20V) with V20G, S25N
The assay is described as follows: […]GTPγS binding to GST fusion protein. A general note: GTPγS resists hydrolysis and so accumulates on activated G proteins.

Assay [4] addresses T1, DRal (Drosophila Ral), GST-DRal. The assay is described as follows: [3H]GDP binding to GST fusion protein.
For assay [5], the target named is T2, DRal (Drosophila Ral), GST-DRal. The assay is described as follows: [3H]GDP binding to GST fusion protein.
The target of assay [6] is T3, DRal (Drosophila Ral), GST-DRal. Kind of assay: [3H]GDP binding to GST fusion protein.

Usually Kd stands for the constant that tells how readily two partners part at equilibrium. Read a high Kd as weaker binding. On to `Nc1nc2c(ncn2[C@@H]2O[C@H](COP(=O)(O)OP(=O)(O)OP(O)(O)=S)[C@@H](O)[C@H]2O)c(=O)[nH]1` [GTPγS], for which the dissociation constant (Kd) in assay [1] amounted to 38 nM; in assay [2], 30.7 nM; in assay [3], 406 nM.

Take `Nc1nc2c(ncn2[C@@H]2O[C@H](COP(=O)(O)OP(=O)(O)O)[C@@H](O)[C@H]2O)c(=O)[nH]1` [GDP]: the Kd in assay [4] turned out to be 8.4 nM; in assay [5], 14 nM; in assay [6] it was 95.1 nM.
